Experimental data taken from US20240041042A1, “1-(PYRIDYL)-5-AZINYLPYRAZOLE DERIVATIVES, AND THEIR USE FOR CONTROL OF UNDESIRED PLANT GROWTH” (Bayer Aktiengesellschaft, priority 2020, published 2024).

Tests used:
Assay type in all cases: in vivo
[1] = system: Abutilon theophrasti (ABUTH); test: Pre-emergence herbicidal action against ABUTH; conditions: Dosage column 320 g/ha (title prints 3200 g/ha); scored visually after about 3 weeks; 100% = plants have died
Description: Seeds of monocotyledonous and dicotyledonous weed plants and crop plants are placed in plastic or organic planting pots and covered with soil. The compounds of the invention, formulated in the form of wettable powders (WP) or as emulsion concentrates (EC), are then applied to the surface of the covering soil as aqueous suspension or emulsion with addition of 0.5% additive at a water application rate equivalent to 600 l/ha. After the treatment, the pots are placed in a greenhouse and kept under good growth conditions for the trial plants. After about 3 weeks, the effect of the preparations is scored visually in comparison with untreated controls as percentages. For example, 100% activity=the plants have died, 0% activity=like control plants.
Tables A1 to A13 below show the effects of selected compounds of the general formula (I) on various harmful plants and at an application rate corresponding to 320 g/ha or lower, which were obtained by the experimental procedure mentioned above. The appendices “a”, “b” and “c” give differentiation by dosage used with otherwise the same harmful plants tested.

[2] = system: Alopecurus myosuroides (ALOMY); test: Pre-emergence herbicidal action against ALOMY; conditions: scored visually after about 3 weeks, 100% = plants have died
Procedure, shortened: (§1)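 Seeds sown in pots and covered with soil; WP or EC formulations sprayed onto the soil surface at 600 l/ha water with 0.5% additive, at 320 g/ha or lower. Greenhouse growth for about 3 weeks, then visual scoring as % effect against untreated controls (100% = plants dead).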

[3] = system: Amaranthus retroflexus (AMARE); test: Pre-emergence herbicidal action against AMARE; conditions: visual scoring after about 3 weeks vs untreated controls
Procedure, shortened: as §1

Avena fatua (AVEFA) [4] = test: Pre-emergence herbicidal action against AVEFA; conditions: visual scoring after about 3 weeks vs untreated controls
Procedure, shortened: as §1

[5] = system: Echinochloa crus-galli (ECHCG); test: Pre-emergence herbicidal action against ECHCG
Procedure, shortened: as §1

Lolium rigidum (LOLRI) [6] = test: Pre-emergence herbicidal action against LOLRI
Procedure, shortened: as §1

[7] = system: Matricaria inodora (MATIN); test: Pre-emergence herbicidal action against MATIN; conditions: dosage 320 g/ha
Procedure, shortened: as §1

[8] = system: Polygonum convolvulus (POLCO); test: Pre-emergence herbicidal action against POLCO
Procedure, shortened: as §1

Setaria viridis (SETVI) [9] = test: Pre-emergence herbicidal action against SETVI
Procedure, shortened: as §1

[10] = system: Verconica persica (VERPE); test: Pre-emergence herbicidal action against VERPE; conditions: dosage 320 g/ha
Procedure, shortened: as §1

Viola tricolor (VIOTR) [11] = test: Pre-emergence herbicidal action against VIOTR
Procedure, shortened: as §1

[12] = system: Abutilon theophrasti (ABUTH); test: Post-emergence herbicidal action against ABUTH; conditions: visual rating about 3 weeks after treatment vs untreated controls (100% = plants have died, 0% = like control plants)
Procedure, shortened: (§2)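 Rates were 320 g/ha or below, applied as aqueous WP/EC spray with 0.5% additive (600 l/ha) onto one-leaf-stage plants. About 3 weeks later in the greenhouse, damage was scored visually against untreated plants on a 0–100% scale, where 100% means plants died.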

[13] = system: Alopecurus myosuroides (ALOMY); test: Post-emergence herbicidal action against ALOMY; conditions: visual rating about 3 weeks after treatment vs untreated controls (100% = plants have died, 0% = like control plants)
Procedure, shortened: as §2

[14] = system: Amaranthus retroflexus (AMARE); test: Post-emergence herbicidal action against AMARE
Procedure, shortened: as §2

Avena fatua (AVEFA) [15] = test: Post-emergence herbicidal action against AVEFA; conditions: visual rating about 3 weeks after treatment
Procedure, shortened: as §2

[16] = system: Echinochloa crus-galli (ECHCG); test: Post-emergence herbicidal action against ECHCG
Procedure, shortened: as §2

Lolium rigidum (LOLRI) [17] = test: Post-emergence herbicidal action against LOLRI
Procedure, shortened: as §2

[18] = system: Pharbitis purpurea (PHBPU); test: Post-emergence herbicidal action against PHBPU; conditions: dosage 320 g/ha
Procedure, shortened: as §2

Setaria viridis (SETVI) [19] = test: Post-emergence herbicidal action against SETVI
Procedure, shortened: as §2

[20] = system: Verconica persica (VERPE); test: Post-emergence herbicidal action against VERPE
Procedure, shortened: as §2

Viola tricolor (VIOTR) [21] = test: Post-emergence herbicidal action against VIOTR
Procedure, shortened: as §2

Oryza sativa (ORYSA) = conditions: crop plant compatibility, 80 g/ha, effect in comparison to untreated controls
Procedure, shortened: (§3)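 Greenhouse crops in sandy loam sprayed post-emergence at the one-leaf stage, 2–3 weeks after sowing, with WP or EC formulations in water plus 0.5% additive at 600 l/ha. Damage rated visually about 3 weeks later versus untreated controls (0% = like control, 100% = dead); suffixes a–c denote different doses.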

[22] = system: Polygonum convolvulus (POLCO); test: Post-emergence herbicidal action against POLCO
Procedure, shortened: as §2

Zea mays (ZEAMX) = conditions: crop plant compatibility, 80 g/ha, effect vs untreated controls
Procedure, shortened: as §3

[23] = 80 g/ha, visual rating about 3 weeks after treatment vs untreated controls (100% = plants have died, 0% = like control plants)
[24] = 320 g/ha, visual rating about 3 weeks after treatment

Compound	Pre-emergence action against ABUTH [1] [%]	Pre-emergence action against ALOMY ([2]; 80 g/ha) [%]	Pre-emergence action against ALOMY ([2]; 320 g/ha) [%]	Pre-emergence action against AMARE in % ([3]; 80 g/ha) [%]	Pre-emergence action against AMARE in % ([3]; 320 g/ha) [%]	Pre-emergence action against AVEFA in % (Avena fatua (AVEFA) [4]; 320 g/ha) [%]	Pre-emergence action against ECHCG in % ([5]; dosage 320 g/ha) [%]	Pre-emergence action against LOLRI in % (Lolium rigidum (LOLRI) [6]; dosage 80 g/ha) [%]	Pre-emergence action against LOLRI in % (Lolium rigidum (LOLRI) [6]; dosage 320 g/ha) [%]	Pre-emergence action against MATIN in % [7] [%]	Pre-emergence action against POLCO in % ([8]; dosage 320 g/ha) [%]	Pre-emergence action against SETVI in % (Setaria viridis (SETVI) [9]; dosage 80 g/ha) [%]	Pre-emergence action against SETVI in % (Setaria viridis (SETVI) [9]; dosage 320 g/ha) [%]	Pre-emergence action against VERPE in % [10] [%]	Pre-emergence action against VIOTR in % (Viola tricolor (VIOTR) [11]; 320 g/ha, Viola tricolor) [%]	Pre-emergence action against VIOTR in % (Viola tricolor (VIOTR) [11]; dosage 80 g/ha) [%]	Post-emergence action against ABUTH in % ([12]; 80 g/ha) [%]	Post-emergence action against ABUTH in % ([12]; 320 g/ha) [%]	Post-emergence action against ALOMY in % ([13]; 80 g/ha) [%]	Post-emergence action against ALOMY in % ([13]; 320 g/ha) [%]	further results
COC(=O)[C@@H](C)Oc1nn(-c2ccnc(Cl)c2)c(-c2ccc(F)nc2)c1Br [III-22]	100	100	100	90	100	100	100	100	100	100	100	100	100	100	100	90	90	90	100	100	Pre-emergence action against AVEFA in % (Avena fatua (AVEFA) [4]; 80 g/ha): 80%; Pre-emergence action against ECHCG in % ([5]; dosage 80 g/ha): 100%; Post-emergence action against AMARE in % [14, 23]: 90%; Post-emergence action against AMARE in % [14, 24]: 90%; Post-emergence action against AVEFA in % (Avena fatua (AVEFA) [15]; 80 g/ha): 100%; Post-emergence action against AVEFA in % (Avena fatua (AVEFA) [15]; 320 g/ha): 100%; Post-emergence action against ECHCG in % ([16]; dosage 80 g/ha): 100%; Post-emergence action against ECHCG in % ([16]; dosage 320 g/ha): 100%; Post-emergence action against LOLRI in % (Lolium rigidum (LOLRI) [17]; dosage 320 g/ha): 100%; Post-emergence action against PHBPU in % [18]: 80%; Post-emergence action against SETVI in % (Setaria viridis (SETVI) [19]; dosage 80 g/ha): 100%; Post-emergence action against SETVI in % (Setaria viridis (SETVI) [19]; dosage 320 g/ha): 100%; Post-emergence action against VERPE in % ([20]; 320 g/ha, VERPE): 90%; Post-emergence action against VERPE in % ([20]; dosage 80 g/ha): 80%; Post-emergence action against VIOTR in % (Viola tricolor (VIOTR) [21]; 80 g/ha): 90%; Post-emergence action against VIOTR in % (Viola tricolor (VIOTR) [21]; 320 g/ha): 90%; Post-emergence action against ORYSA in % (Oryza sativa (ORYSA)): 0%
COC(=O)CNC(=O)[C@@H](C)Oc1nn(-c2ccccn2)c(-c2ccc(F)nc2)c1Cl [Example I-339]	90	100	100	100	100	100	100	100	100	100	100	100	100	100	100	100	80	90	90	100	Pre-emergence action against AVEFA in % (Avena fatua (AVEFA) [4]; 80 g/ha): 100%; Pre-emergence action against POLCO in % ([8]; dosage 80 g/ha): 90%; Post-emergence action against AMARE in % [14, 23]: 90%; Post-emergence action against AMARE in % [14, 24]: 90%; Post-emergence action against AVEFA in % (Avena fatua (AVEFA) [15]; 80 g/ha): 90%; Post-emergence action against AVEFA in % (Avena fatua (AVEFA) [15]; 320 g/ha): 90%; Post-emergence action against ECHCG in % ([16]; dosage 80 g/ha): 90%; Post-emergence action against ECHCG in % ([16]; dosage 320 g/ha): 90%; Post-emergence action against LOLRI in % (Lolium rigidum (LOLRI) [17]; dosage 80 g/ha): 90%; Post-emergence action against LOLRI in % (Lolium rigidum (LOLRI) [17]; dosage 320 g/ha): 90%; Post-emergence action against PHBPU in % [18]: 80%; Post-emergence action against POLCO in % ([22]; dosage 80 g/ha): 90%; Post-emergence action against POLCO in % ([22]; dosage 320 g/ha): 90%; Post-emergence action against SETVI in % (Setaria viridis (SETVI) [19]; dosage 80 g/ha): 90%; Post-emergence action against SETVI in % (Setaria viridis (SETVI) [19]; dosage 320 g/ha): 90%; Post-emergence action against VERPE in % ([20]; 320 g/ha, VERPE): 90%; Post-emergence action against VERPE in % ([20]; dosage 80 g/ha): 80%; Post-emergence action against VIOTR in % (Viola tricolor (VIOTR) [21]; 80 g/ha): 90%; Post-emergence action against VIOTR in % (Viola tricolor (VIOTR) [21]; 320 g/ha): 90%; Post-emergence action against ORYSA in % (Oryza sativa (ORYSA)): 0%
CCOC(=O)CNC(=O)COc1nn(-c2ncccc2F)c(-c2ccc(OC)nc2)c1Br [Example I-48]	80	80	100	90	100	100	100	100	100	100	90	100	100	100	100	100	90	90	100	100	Pre-emergence action against POLCO in % ([8]; dosage 80 g/ha): 90%; Post-emergence action against AMARE in % [14, 23]: 80%; Post-emergence action against AMARE in % [14, 24]: 80%; Post-emergence action against AVEFA in % (Avena fatua (AVEFA) [15]; 320 g/ha): 100%; Post-emergence action against ECHCG in % ([16]; dosage 80 g/ha): 80%; Post-emergence action against ECHCG in % ([16]; dosage 320 g/ha): 90%; Post-emergence action against LOLRI in % (Lolium rigidum (LOLRI) [17]; dosage 320 g/ha): 80%; Post-emergence action against PHBPU in % [18]: 90%; Post-emergence action against POLCO in % ([22]; dosage 80 g/ha): 80%; Post-emergence action against POLCO in % ([22]; dosage 320 g/ha): 90%; Post-emergence action against SETVI in % (Setaria viridis (SETVI) [19]; dosage 80 g/ha): 80%; Post-emergence action against SETVI in % (Setaria viridis (SETVI) [19]; dosage 320 g/ha): 80%; Post-emergence action against VERPE in % ([20]; 320 g/ha, VERPE): 90%; Post-emergence action against VERPE in % ([20]; dosage 80 g/ha): 90%; Post-emergence action against VIOTR in % (Viola tricolor (VIOTR) [21]; 80 g/ha): 80%; Post-emergence action against VIOTR in % (Viola tricolor (VIOTR) [21]; 320 g/ha): 90%; Post-emergence action against ZEAMX in % (Zea mays (ZEAMX)): 20%
